Laboratory results from US8445466B2, “Stable aqueous compositions comprising amide-protected bioactive creatine species and uses thereof” (priority 2010, dated 2013).

Legend:
[1] = Conversion of creatine to creatinine in aqueous solutions; format: physicochemical; conditions: aqueous solution 0.250 mg/mL
[2] = test system: patients with idiopathic PD; conditions: 20 g/d for the first 5 days and 5 g/d thereafter, 24 sessions of resistance training; cited from earlier work
[3] = test system: patients with McArdle disease; conditions: cited from earlier work
[4] = test system: Division IA college football players; conditions: up to 21-months; 15.75 g/day for five days, average 5 g/day thereafter; cited from earlier work
[5] = test system: young adult, vegetarian subjects; conditions: oral, 5 grams daily for six weeks, 45 subjects; cited from earlier work
[6] = test system: small cohorts of athletes; conditions: oral; short term (5 days), medium term (9 weeks) and long term (up to 5 years); cited from earlier work
[7] = cited from earlier work
[8] = test system: highly trained adolescent (mean age 16) fin swimmers; conditions: five days of supplementation; cited from earlier work
[9] = test system: person with myasthenia gravis; conditions: 5 grams daily with resistance training 3× per week for 15 weeks; cited from earlier work
[10] = cited from earlier work; remark: listed apart in the source
[11] = Stability of creatyl-L-glutamine formulations on storage in glass vials, HPLC assay of C-L-G and creatinine; format: physicochemical
Method: Specifically exemplified herein are three different formulations prepared using stable creatyl-L-glutamine (C-L-G) at a concentration of 1.00 mg/ml between pH 3.0 to 7.0. These formulations are described below.
The above described formulations were stored in glass vials at room temperature (25° C., 77° F.), at refrigerator temperature (4° C., 39° F.) and at elevated temperature (40° C., 104° F.) in vials. These samples were assayed by HPLC at periodic intervals for minimum of 60 days for creatyl-L-glutamine (C-L-G) and creatinine (degradation product of creatine) content. The % recovery results are presented below.

## CN(CC(=O)O)C(=N)N.O [Creatine Monohydrate, creatine monohydrate]
[1]; pH 3.0, 25 C.°, 39 Days
  COP Assay: 0.072 mg/mL
  Creatinine: 0.154 mg/mL
[1]; pH 3.0, 25 C.°, 3 day
  COP Assay: 0.219 mg/ml mg/mL
  Creatinine: 0.026 mg/mL
[1]; pH 3.0, 25 C.°, 10 days
  COP Assay: 0.214 mg/mL
  Creatinine: 0.072 mg/ml mg/mL
[1]; pH 3.0, 25 C.°, 21 days
  COP Assay: 0.151 mg/mL
  Creatinine: 0.111 mg/mL
[1]; pH 3.0, 25 C.°, INITIAL
  COP Assay: 0.245 mg/mL
  Creatinine: 0.000 mg/mL
[1]; pH 3.0, 40 C.°, 39 Days
  COP Assay: 0.030 mg/mL
  Creatinine: 0.186 mg/mL
[1]; pH 3.0, 40 C.°, 3 day
  COP Assay: 0.091 mg/ml mg/mL
  Creatinine: 0.125 mg/mL
[1]; pH 3.0, 40 C.°, 10 days
  COP Assay: 0.036 mg/mL
  Creatinine: 0.177 mg/ml mg/mL
[1]; pH 3.0, 40 C.°, 21 days
  COP Assay: 0.029 mg/mL
  Creatinine: 0.186 mg/mL
[1]; pH 3.0, 40 C.°, INITIAL
  COP Assay: 0.245 mg/mL
  Creatinine: 0.000 mg/mL
[1]; pH 7.0, 40 C.°, 31 Days
  COP Assay: 0.251 mg/mL
  Creatinine: 0.068 mg/mL
[1]; pH 7.0, 40 C.°, 3 day
  COP Assay: 0.242 mg/ml mg/mL
  Creatinine: 0.008 mg/mL
[1]; pH 7.0, 40 C.°, INITIAL
  COP Assay: 0.257 mg/mL
  Creatinine: 0.000 mg/mL
[2]
  biceps curl strength: significantly improved
  chest press strength: significantly improved

## CN(CC(=O)O)C(=N)N [creatine, 2-(carbamimidoyl-methyl-amino) acetic acid]
[3]
  skeletal muscle function: improves
[4]
  adverse effect in long-term supplementation: No adverse effect
[5]
  intelligence (Raven's Advanced Progressive Matrices): significantly improves
  working memory (backward digit span): significantly improves
[6]
  adverse effects on renal function: No adverse effects
[7]; 22 published studies, during resistance training
  average increase in muscle strength, greater than following placebo ingestion: 8%
[7]; 22 published studies, placebo 12%
  average increase in muscle strength following creatine supplementation during resistance training: 20%
[7]; during resistance training
  average increase in weightlifting performance, greater than following placebo ingestion: 14%
[7]; during resistance training, placebo 12%
  average increase in weightlifting performance (maximal repetitions at a given percent of maximal strength): 26%
[7]; short- or long-term creatine supplementations
  adverse health effect: no adverse health effect
[8]
  dynamic strength: enhances
  performance in consecutive maximal swims: improves
[9]
  improved peak strength: up to 37%
  increase in body weight: 7%
  increase in fat free mass: 4%
[10]; GI tract
  degradation in the GI tract into creatinine, estimated rate: ~0.1 g of a 5 g dose per hour
[10]; typical 70 kg individual
  non-enzymatic conversion into creatinine: approximately 1.7 % daily

## CN(CC(=O)N[C@@H](CCC(N)=O)C(=O)O)C(=N)N [creatyl-L-glutamine]
[11]; elevated temperature (40° C., 104° F.)
  time composition is stable: more than 30 days
[11]; refrigerator temperature (4° C., 39° F.)
  time aqueous solutions remain stable: more than 90 days
[11]; room temperature (25° C., 77° F.)
  time aqueous solutions remain stable: more than 90 days

## disodium creatine phosphate tetrahydrate
[1]; pH 3.0, 25 C.°, 39 Days
  Creatine Monohydrate: 0.031 mg/mL
  Creatinine: 0.069 mg/mL
[1]; pH 3.0, 25 C.°, 3 day
  Creatine Monohydrate: 0.095 mg/mL
  Creatinine: 0.014 mg/mL
[1]; pH 3.0, 25 C.°, 10 days
  Creatine Monohydrate: 0.092 mg/mL
  Creatinine: 0.034 mg/mL
[1]; pH 3.0, 25 C.°, 21 days
  Creatine Monohydrate: 0.065 mg/mL
  Creatinine: 0.050 mg/ml mg/mL
[1]; pH 3.0, 25 C.°, INITIAL
  Creatine Monohydrate: 0.000 mg/ml mg/mL
  Creatinine: 0.000 mg/mL
[1]; pH 3.0, 40 C.°, 39 Days
  Creatine Monohydrate: 0.012 mg/ml mg/mL
  Creatinine: 0.081 mg/mL
[1]; pH 3.0, 40 C.°, 3 day
  Creatine Monohydrate: 0.042 mg/mL
  Creatinine: 0.054 mg/mL
[1]; pH 3.0, 40 C.°, 10 days
  Creatine Monohydrate: 0.017 mg/mL
  Creatinine: 0.086 mg/mL
[1]; pH 3.0, 40 C.°, 21 days
  Creatine Monohydrate: 0.011 mg/mL
  Creatinine: 0.080 mg/ml mg/mL
[1]; pH 3.0, 40 C.°, INITIAL
  Creatine Monohydrate: 0.004 mg/mL
  Creatinine: 0.000 mg/mL
[1]; pH 7.0, 25 C.°, 39 Days
  Creatine Monohydrate: 0.089 mg/mL
  Creatinine: 0.000 mg/mL
[1]; pH 7.0, 25 C.°, 3 day
  Creatinine: 0.000 mg/mL
[1]; pH 7.0, 25 C.°, 10 days
  Creatine Monohydrate: 0.041 mg/mL
  Creatinine: 0.000 mg/mL
[1]; pH 7.0, 25 C.°, 21 days
  Creatine Monohydrate: 0.069 mg/mL
  Creatinine: 0.000 mg/ml mg/mL
[1]; pH 7.0, 25 C.°, INITIAL
  Creatine Monohydrate: 0.00 mg/mL
  Creatinine: 0.000 mg/mL
[1]; pH 7.0, 40 C.°, 39 Days
  Creatine Monohydrate: 0.108 mg/mL
  Creatinine: 0.030 mg/mL
[1]; pH 7.0, 40 C.°, 3 day
  Creatine Monohydrate: 0.042 mg/mL
  Creatinine: 0.004 mg/mL
[1]; pH 7.0, 40 C.°, 10 days
  Creatine Monohydrate: 0.114 mg/mL
  Creatinine: 0.012 mg/mL
[1]; pH 7.0, 40 C.°, 21 days
  Creatine Monohydrate: 0.122 mg/mL
  Creatinine: 0.020 mg/ml mg/mL
[1]; pH 7.0, 40 C.°, INITIAL
  Creatine Monohydrate: 0.00 mg/mL
  Creatinine: 0.000 mg/mL
